Holding throughout (format): in vivo
Test [1] relates to Tetranychus urticae (spider mites - adult). Description: Contact test on spider mites - adult (TUa), French bean leaf, mortality. The conditions noted are these: 72 h, contact, 3 days, read-out: TUa grading of mortality. As to the method:
(§1) The activity of the Product was determined using a variety of insect pests. The Product was used in the form of liquid preparations containing 500, 250 or 100 parts per million (ppm) by weight of the Product. The preparations were made by dissolving the Product in acetone and diluting the solutions with water containing 0.01% by weight of a wetting agent sold under the trade name "LISSAPOL" NX until the liquid preparations contained the required concentration of the Product. "Lissapol" is a Registered Trade Mark.
(§2) The test procedure adopted with regard to each pest was basically the same and comprised supporting a number of the pests on a medium which was usually a host plant or a foodstuff on which the pests feed, and treating either or both the pests and the medium with the preparations. The mortality of the pests was then assessed at periods usually varying from one to three days after the treatment.
(§3) The results of the tests are given in Table III for each of the Products, at the rate in parts per million given in the second column as a grading of mortality designated as A, B or C wherein A indicates 80-100% mortality or knockdown, B indicates 50-79% mortality or knockdown and C indicates less than 50% mortality or knockdown.

Test [2] relates to Tetranychus urticae (spider mites - ova). Description: Contact test on spider mites - ova (TUe), French bean leaf, mortality. The conditions noted are these: 144 h, contact, 6 days, read-out: TUe grading of mortality. As to the method:
as §1, §2, §3

The test system of another test is Myzus persicae (aphids). Briefly: Contact test on aphids (MP), Chinese Cabbage leaf, mortality. The conditions noted are these: 72 h, contact, 3 days, read-out: MP grading of mortality. On the procedure:
as §1, §2, §3

Test [3] has as its system Nephotettix cincticeps (green leaf hopper - nymphs). Description: Contact test on green leaf hopper nymphs (NC), Rice plant, mortality. The conditions noted are these: 48 h, 500 ppm, contact, 2 days, read-out: NC grading of mortality. As to the method: as §1, §2, §3
NC Nephotettix cincticeps

For test [4], the system named is Musca domestica (houseflies - adults). Description: Knockdown test on houseflies - adults (MD/KD), Cotton wool/sugar. The note with it: 500 ppm, 4 hours, read-out: MD/KD grading of knockdown. As to the method: as §1, §2
In the case of the species Musca domestica (housefly), additional tests to determine the knockdown effect of the compounds were performed. PG,163
as §3

Test [5] shares this test system. Description: Contact test on houseflies - adults (MD), Cotton wool/sugar, mortality. The conditions noted are these: 72 h, 500 ppm, contact, 3 days, read-out: MD grading of mortality. As to the method:
as §1, §2, §3

Test [6] relates to Blattella germanica (cockroach nymphs). Description: Contact test on cockroach nymphs (BG/C), Plastic pot, mortality. The conditions noted are these: 48 h, contact, 2 days, read-out: BG/C grading of mortality. As to the method: as §1, §2, §3
BG/C Blattella germanica

For test [7], the system named is Heliothis virescens (tobacco budworm - larvae). Briefly: Residual test on tobacco budworm larvae (HV), Cotton leaf, mortality. The note with it: 48 h, read-out: HV grading of mortality. As to the method:
as §1, §2, §3
(tobacco budworm - larvae)

Test [8] concerns Spodoptera exigua (lesser army worm - larvae). Description: Residual test on lesser army worm larvae (SP), Cotton leaf, mortality. The conditions noted are these: 48 h, residual, 2 days, read-out: SP grading of mortality. On the procedure:
as §1, §2, §3
(lesser army worm - larvae)

The subject of test [9] is Diabrotica balteata (rootworm larvae). Description: Residual test on rootworm larvae (DB), Filter paper/maize seed, mortality. The conditions noted are these: 48 h, residual, 2 days, read-out: DB grading of mortality. On the procedure: as §1, §2, §3

With `CC(C)(C)c1ncc(C(C(=O)OCc2ccc(F)c(Oc3ccccc3)c2)C(C)(C)C)cn1` (racemic) [Compound 25, 4-fluoro-3-phenoxybenzyl (RS)-2-[2-(1,1-dimethylethyl)pyrimidin-5-yl]-3,3-dimethylbutanoate], the mortality at 500 ppm in test [1] is 80 to 100%; in [2], 80 to 100%; in the test on Myzus persicae (aphids) it was 80 to 100%; in test [3], 80 to 100%; in test [5], below 50%; in test [6], below 50%. The mortality at 500 ppm was 80 to 100% in test [7], 80 to 100% in test [8] and 50 to 79% in test [9]. For the same molecule, the pest or weed control at 500 ppm in test [4] is 80 to 100%.
On to `CC(C)(C)c1ncc(C(C(=O)OCc2c(F)c(F)c(CCl)c(F)c2F)C(C)(C)C)cn1` (racemic) [Compound 167, 4-chloromethyl-2,3,5,6-tetrafluorobenzyl (RS)-2-[2-(1,1-dimethylethyl)pyrimidin-5-yl]-3,3-dimethylbutanoate], for which the mortality at 500 ppm was 80 to 100% in test [1]; 80 to 100% in test [2]; 80 to 100% in the test on Myzus persicae (aphids); below 50% in [5]; below 50% in [6]; 80 to 100% in test [7]. Besides, the mortality at 500 ppm in [8] and in test [9] was 80 to 100% throughout. For the same molecule, the pest or weed control at 500 ppm in test [4] was below 50%.
For the molecule `CCN(CC)Cc1c(F)c(F)c(COC(=O)C(c2cnc(C(C)(C)C)nc2)C(C)(C)C)c(F)c1F` (racemic) [Compound 176], the mortality at 500 ppm in test [1] was 80 to 100%; in [2] it was below 50%; with Myzus persicae (aphids), 80 to 100%; in [3] it was 80 to 100%; in test [5], 80 to 100%; in test [6], below 50%. Further, the mortality at 500 ppm in [7] was 80 to 100%; in test [8] it was 80 to 100%; in [9], below 50%. Besides, in test [4], the pest or weed control at 500 ppm lay within 80 to 100%.
Consider `CC(C)(C)c1ncc(C(C(=O)OCc2c(F)c(F)c(CC=CCl)c(F)c2F)C(C)(C)C)cn1` (racemic) [Compound 14, 4-(EZ-3-chloroprop-2-en-1-yl)-2,3,5,6-tetrafluorobenzyl (RS)-2-[(1,1-dimethylethyl)pyrimidin-5-yl)-3,3-dimethylbutanoate], for which the mortality at 500 ppm in [1] is 80 to 100%; in [2], below 50%; in the test on Myzus persicae (aphids) it was 80 to 100%; in test [3], 80 to 100%; in [5], 80 to 100%; in test [6], below 50%. Besides, the results for the mortality at 500 ppm in test [7], in [8] and in [9] were 80 to 100%, below 50% and below 50%, respectively. Besides, in [4], the pest or weed control at 500 ppm lay in the range of 50 to 79%.
As for `C[C@@H](OC(=O)[C@@H](c1cnc(C(C)(C)C)nc1)C(C)(C)C)c1cccc(Oc2ccccc2)n1` (racemic) [Compound 11, (RS)-1-(6-phenoxypyrid-2-yl)ethyl (RS)-2-[2-(1,1-dimethylethyl)pyrimidin-5-yl]-3,3-dimethylbutanoate], the mortality at 500 ppm in test [1] was 80 to 100%; in test [2], 80 to 100%; in the test with Myzus persicae (aphids), 80 to 100%; in [3], 80 to 100%; in test [5], 80 to 100%; in test [6] it was below 50%. Moreover, the mortality at 500 ppm in [7], in [8] and in [9] was 80 to 100% each time. Besides, in test [4], the pest or weed control at 500 ppm was in the range of 80 to 100%.
With `CC(C)(C)SCc1c(F)c(F)c(COC(=O)C(c2cnc(C(C)(C)C)nc2)C(C)(C)C)c(F)c1F` (racemic) [Compound 175, 4-[(1,1-dimethylethyl)thio]methyl-2,3,5,6-tetrafluorobenzyl (RS)-2-[2-(1,1-dimethylethyl)pyrimidin-5-yl]-3,3dimethylbutanoate], the mortality at 500 ppm was 80 to 100% in [1]; below 50% in [2]; below 50% with Myzus persicae (aphids); below 50% in [3]; below 50% in test [5]; below 50% in test [6]. The mortality at 500 ppm in test [7], in test [8] and in test [9] was below 50% throughout. Besides, the pest or weed control at 500 ppm in test [4] is below 50%.
For `CC(C)c1ncc([C@H](C(=O)O[C@H](C)c2cccc(Oc3ccccc3)n2)C(C)(C)C)cn1` (racemic) [Compound 74, (RS)-1-(6-phenoxypyridin-2-yl)ethyl (RS)-2-[2-(1-methylethyl)pyrimidin-5-yl]-3,3-dimethylbutanoate], the mortality at 500 ppm was 80 to 100% in test [1]; below 50% in test [2]; 50 to 79% with Myzus persicae (aphids); 80 to 100% in [3]; 50 to 79% in test [5]; below 50% in test [6]. Also, the mortality at 500 ppm in test [7] is 80 to 100%; in [8], 80 to 100%; in test [9], below 50%. In addition, in test [4], the pest or weed control at 500 ppm was below 50%.
`CC(C)(C)C(=O)OCc1c(F)c(F)c(COC(=O)C(c2cnc(C(C)(C)C)nc2)C(C)(C)C)c(F)c1F` (racemic) [Compound 172, 4-[(2,2-dimethylpropionyl)oxymethyl]-2,3,5,6-tetrafluorobenzyl (RS)-2-[2-(1,1-dimethylethyl)pyrimidin-5-yl]-3,3-dimethylbutanoate]: the mortality at 500 ppm in test [1] was 80 to 100%; in test [2], below 50%; with Myzus persicae (aphids), 50 to 79%; in test [3] it was below 50%; in test [5], below 50%; in test [6] it was below 50%. Besides, the mortality at 500 ppm in [7], in test [8] and in test [9] was below 50% each time. For the same molecule, the pest or weed control at 500 ppm in test [4] was below 50%.
Turning to `CC(C)(C)C(C(=O)OCc1ccc(F)c(Oc2ccccc2)c1)c1cnc(-c2ccccc2Cl)nc1` (racemic) [Compound 209, 4-fluoro-3-phenoxybenzyl (RS)-2-[2-(2-chlorophenyl)pyrimidin-5-yl]-3,3-dimethylbutanoate], the mortality at 500 ppm in [1] is 80 to 100%; in [2], below 50%; in the test on Myzus persicae (aphids), 50 to 79%; in test [3] it was below 50%; in test [5], below 50%; in test [6] it was below 50%. Besides, the mortality at 500 ppm in test [7] was 80 to 100%; in [8] it was 50 to 79%; in test [9], below 50%. Also, the pest or weed control at 500 ppm in [4] is below 50%.
Regarding `CCC(C)(C)C(C(=O)OCc1c(F)c(F)c(COC)c(F)c1F)c1cnc(C(C)(C)C)nc1` (racemic) [Compound 210, 4-methoxymethyl-2,3,5,6-tetrafluorobenzyl (RS)-2-[2-(1,1-dimethylethyl)-pyrimidin-5-yl]-3,3-dimethylpentanoate], the mortality at 100 ppm in test [1] (100 ppm) was 80 to 100%; in test [2] (100 ppm) it was 80 to 100%; in the test on Myzus persicae (aphids) (100 ppm) it was below 50%; in test [6] (100 ppm) it was below 50%; in test [7], below 50%; in test [8] (100 ppm) it was below 50%. In addition, the mortality at 100 ppm in test [9] (100 ppm) was below 50%.
In the case of `CC(C)(C)c1ncc(C(C(=O)OCN2C(=O)C3=C(CCCC3)C2=O)C(C)(C)C)cn1` (racemic) [Compound 6, N-3,4,5,6-tetrahydrophthalimidomethyl (RS)-2-[2-(1,1-dimethylethyl)pyrimidin-5-yl]-3,3-dimethylbutanoate], the mortality at 500 ppm was 80 to 100% in test [1]; below 50% in the test with Myzus persicae (aphids); below 50% in test [3]; below 50% in test [5]; below 50% in [6]; below 50% in [7]. Also, the mortality at 500 ppm in test [8] is below 50%; in test [9], 50 to 79%. In addition, the pest or weed control at 500 ppm in test [4] is below 50%.

The values are drawn from patent US4962109A, “Insecticidally and acaricidally active pyrimidine esters and intermediates therefor” (Imperial Chemical Industries PLC, priority 1985, dated 1990).
